Results published in patent publication US9636317B2, “Compositions and methods of use of phorbol esters” (priority 2007, dated 2017).

What was measured:
[1] = Anti-aging properties of TPA (patient case); type: in vivo, human; conditions: 1.25 ampoules of 0.125 mg/m^2 every other day for two months
Method: Patient eight, person, was being treated for prostate hypertrophy with 1.25 ampoules of 0.125 mg/m^2 every other day for two months.

[2] = test system: relapsed/refractory AML, other myeloid malignancies, Hodgkin's Disease, non-Hodgkin's lymphoma, solid tumors; assay: TPA Phase 1 study in relapsed/refractory malignancies; type: in vivo
Excerpt: An initial TPA Phase 1 study enrolled 35 patients [23 with relapsed/refractory AML, 2 with other myeloid malignancies (CML-blast crisis, myelodysplasia with excess blasts), 3 with Hodgkin's Disease, 3 with non-Hodgkin's lymphoma and 4 with solid tumors]. The majority of patients had relapsed/refractory AML. Our clinical results include one AML patient with stable disease for >5 months, who received 8 TPA infusions. In a second AML patient, a pronounced (5-fold) decline in the number of circulating blasts was seen following TPA administration. This decline in leukemic blasts persisted for 4 weeks, and the patient eventually died from a fungal infection.

[3] = Treatment of Parkinson's disease (patient case); type: in vivo, human; conditions: 0.19, 0.24, 0.26 mg TPA every other day over 9 weeks
Method: Patient two was diagnosed with Parkinson's disease. They were injected with 1 ampoule containing 0.19 mg of TPA (0.125 mg/m^2) TPA every other day for four weeks, then 0.24 mg of TPA (1.25×0.125 mg/m^2) every other day for 2 weeks, and 0.26 mg of TPA (1.5×0.125 mg/m^2) every other day for an additional 3 weeks.

SMILES: CCCCCCCCCCCCCC(=O)O[C@@H]1[C@@H](C)[C@@]2(O)[C@@H](C=C(CO)C[C@]3(O)C(=O)C(C)=C[C@@H]23)[C@@H]2C(C)(C)[C@]12OC(C)=O [TPA, 12-O-tetradecanoylphorbol-13-acetate]
- skin [1]: their skin became softer and had fewer wrinkles
- patients with grade III non-hematologic dose limiting toxicities (DLT) ([2]; 0.188 mg/m2 d1-5, 8-12): 2 out of 3
- maximum tolerated TPA dose as a single agent ([2]; d1-5 and 8-12): 0.125 mg/m2/d
- duration of stable disease ([2]; one AML patient, 8 TPA infusions): > 5 months
- response of relapsed and refractory Hodgkin's disease ([2]; one patient): partial remission of a chest wall mass
- persistence of the decline in leukemic blasts ([2]; second AML patient): 4 weeks
- decline in the number of circulating blasts ([2]; second AML patient, following TPA administration): 5 fold
- tremors [3]: no longer displaying tremors
